# Reference: PMC2796824 (Journal of biomolecular screening, 2009)
# “And” between values parts separate entries of the source, which are not always exact repeats. Identical values can stand only once.
# Tests used:
# [1] = target: T1, MBP-MshC (Mycobacterium tuberculosis, UniProt P9WJM9); assay: Confirmatory assay: CGI production by fluorescence-detected HPLC; type: biochemical
# [2] = target: T1, MBP-MshC; assay: MshC coupled luminescent assay; type: biochemical
# [3] = target: MBP (Escherichia coli, UniProt P0AEX9); assay: Isothermal titration calorimetry with MBP tag alone; type: binding; conditions: ITC, 1-site model, 25 °C
# [4] = target: T1, MBP-MshC; assay: Isothermal titration calorimetry with MBP-MshC; type: binding
# [5] = target: T1, MBP-MshC; assay: Mode of inhibition of dequalinium; type: biochemical
# [6] = test system: N[C@@H](CS)C(=O)O; assay: purified protein, by the assay type
# [7] = IC50, quantitative CGI-HPLC confirmatory assay
# T1 sequence (P9WJM9 whole entry, looked up): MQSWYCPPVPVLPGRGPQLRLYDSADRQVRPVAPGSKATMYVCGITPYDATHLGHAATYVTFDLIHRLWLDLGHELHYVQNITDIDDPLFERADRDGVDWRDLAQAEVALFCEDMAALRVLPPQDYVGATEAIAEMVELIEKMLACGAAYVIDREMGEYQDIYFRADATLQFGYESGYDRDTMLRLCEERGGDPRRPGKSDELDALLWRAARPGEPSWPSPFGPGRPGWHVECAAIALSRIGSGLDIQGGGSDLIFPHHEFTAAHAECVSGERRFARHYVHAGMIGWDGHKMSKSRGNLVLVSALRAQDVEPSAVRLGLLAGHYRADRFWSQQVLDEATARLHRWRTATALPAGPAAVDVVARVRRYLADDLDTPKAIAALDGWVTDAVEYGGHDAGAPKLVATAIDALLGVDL
compound,measurement,setting,value
"Cc1cc(N)c2ccccc2[n+]1C [1a, 1-methyl 4-aminoquinaldinium iodide]",IC50,[1]; [7],830 µM
"Nc1ncnc2c1ncn2[C@@H]1O[C@H](COS(=O)(=O)NC(=O)[C@@H](N)CS)[C@@H](O)[C@H]1O [CysSA, 5′-O-[N-(L-cysteinyl)sulfamoyl] adenosine]",IC50,[2],240 ± 1 nM
"Cc1cc(N)c2ccccc2[n+]1CCCCCCCCCC[n+]1c(C)cc(N)c2ccccc21 [compound 1, dequalinium chloride]",Kd,[3],8.5 µM and 7 to 8.5 µM
same,Kd,[4],7.1 ± 0.8 µM
same,mode of inhibition,[5]; with respect to ATP (varied 31.3 to 4000 μM),AT P-competitive inhibitor
same,mode of inhibition,[5]; with respect to GI (varied 34-1100 μM),synergy
same,IC50,[1]; [7],24 µM and ~24 µM
C[n+]1ccc(Nc2ccc(NC(=O)c3ccc(Nc4cc[n+](C)c5ccc([N+](=O)[O-])cc45)cc3[N+](=O)[O-])cc2)cc1 [compound 2],IC50,[1]; quantitative CGI-HPLC confirmatory assay,~500 µM
MBP-MshC (Mycobacterium tuberculosis H37Rv),Km,[6],140 ± 40 µM
same,Vmax,[6],85 ± 7 nmol/min/mg
